{"source": "patent US20250327032A1", "about": "“AGENT FOR AVOIDING IMMUNE RESPONSE OF TRANSGENIC CELLS” (HYPERION DRUG DISCOVERY CO., LTD., priority 2021, published 2025)", "assay_type_in_all_cases": "cell-based", "key": {"[1]": {"test_system": "human mesenchymal stem cells", "assay": "Introduction of increased amount of GFP mRNA (20 pg/cell), yield of GFP-positive cells", "settings": "JSH-23 1 μM, versus 20 pg/cell without JSH-23", "protocol": "Human mesenchymal stem cells were seeded in a 6-well plate to be about 10,000 cells/cm^2. As a culture solution, αMEM (+10% serum) supplemented with 1 μM of JSH-23 or αMEM (+10% serum) supplemented with 0.1% (v/v) DMSO instead of JSH-23 was used.\nA lipofection solution was prepared by adding Lipofectamine RNAiMAX and fluorescent protein GFP mRNA to OptiMEM. It was prepared so that the amount of mRNA was 10 pg/cell or 20 pg/cell. The prepared lipofection solution was mixed well according to the manufacturer's recommended protocol and allowed to stand at room temperature for about 15 minutes.\nNext, a lipofection solution prepared so that the amount of mRNA was 20 pg/cell was added to a plate that used, as a culture solution, αMEM (+10% serum) supplemented with DMSO or JSH-23, respectively. […]\n(§1) Twenty-four hours after the final introduction of genes, the cells were detached with a cell detachment solution, centrifuged at 600×g for 5 minutes using a centrifuge, to collect the cells. The collected cells were counted using a hemocytometer. Furthermore, the GFP-positive percentage of the collected cells was measured using a flow cytometer. The yield of the number of GFP-positive cells was calculated from the number of cells counted and the GFP-positive percentage."}, "[2]": {"test_system": "Human leukemia T cells (Jurkat E6.1)", "assay": "Introduction of GFP-tagged CAR-T plasmid by lipofection, yield of GFP-positive cells", "settings": "JSH-23 0.1 μM; GFP-tagged CAR-T plasmid 1 pg/cell", "protocol": "Human leukemia T cells (Jurkat E6.1) were seeded in a 6-well plate to be about 10,000 cells/cm^2. As a culture solution, RPMI1640 medium comprising 10% bovine serum was used. To this, 0.1 μM of JSH-23 was added, or for comparison, 0.1% (v/v) DMSO instead of JSH-23 was added and used.\nA lipofection solution was prepared by adding Lipofectamine 2000 and GFP-tagged CAR-T plasmid to OptiMEM. The amount of CAR-T plasmid was prepared to be 1 pg/cell. The prepared lipofection solution was mixed well according to the manufacturer's recommended protocol and allowed to stand at room temperature for about 15 minutes.\nNext, the lipofection solution was added to the plate seeded with human leukemia T cells, and cultured in a CO2 incubator at 37° C. for about 1 day (18 hours). […]\nTwenty-four hours after the final introduction of genes, the cells were collected and centrifuged at 800 rpm for 5 minutes using a centrifuge, to collect the cells. The collected cells were counted using a hemocytometer. Furthermore, the GFP-positive percentage of the collected cells was measured using a flow cytometer. The yield of the number of GFP-positive cells was calculated from the number of cells counted and the GFP-positive percentage."}, "[3]": {"test_system": "human mesenchymal stem cells", "assay": "Introduction of GFP mRNA with NFκB inhibitors other than nuclear translocation inhibitors (Example 12), yield of GFP-positive cells", "settings": "JSH-23 1 μM; GFP mRNA 10 pg/cell", "protocol": "Improvement in the yield of transgenic cells when using an NFκB inhibitor other than the NFκB nuclear translocation inhibitor of the present invention was investigated. As the NFκB inhibitors, BAY11 (IKK inhibitor), dexamethasone (IκB degradation inhibitor), and 6-amino-4-(4-phenoxyphenethylamino)quinazoline (p65 acetylation inhibitor) were used to perform introduction of genes. For comparison, introduction of gene was performed under the same conditions using JSH-23, an NFκB nuclear translocation inhibitor, instead of the above-mentioned NFκB inhibitors. The specific procedure is as follows.\nHuman mesenchymal stem cells were seeded in a 6-well plate to be about 10,000 cells/cm^2. […]\nas §1"}}}
{"smiles": "Cc1ccc(NCCCc2ccccc2)c(N)c1", "note": "[JSH-23]", "values": [{"measurement": "number of GFP-positive cells", "setting": "[1]", "value": "increased"}, {"measurement": "number of GFP-positive cells compared to the control (control set to 1)", "setting": "[2]", "value": "≥ 2", "unit": "times"}, {"measurement": "number of GFP-positive (transgenic) cells relative to control (set to 1)", "setting": "[3]", "value": "≥ 7", "unit": "times"}]}
